Assay results reported in article PMC11233587, “Design, synthesis, in vitro, and in silico anti-α-glucosidase assays of N-phenylacetamide-1,2,3-triazole-indole-2-carboxamide derivatives as new anti-diabetic agents” (Scientific Reports, 2024).
“Also recorded” adds a separate entry of the source. Read-outs that look alike come from different tables or passages of the source.

Assays:
yeast α-glucosidase = yeast α-glucosidase (Saccharomyces cerevisiae, UniProt P53341); test: biochemical; type: biochemical
Sequence of yeast α-glucosidase (P53341 whole entry): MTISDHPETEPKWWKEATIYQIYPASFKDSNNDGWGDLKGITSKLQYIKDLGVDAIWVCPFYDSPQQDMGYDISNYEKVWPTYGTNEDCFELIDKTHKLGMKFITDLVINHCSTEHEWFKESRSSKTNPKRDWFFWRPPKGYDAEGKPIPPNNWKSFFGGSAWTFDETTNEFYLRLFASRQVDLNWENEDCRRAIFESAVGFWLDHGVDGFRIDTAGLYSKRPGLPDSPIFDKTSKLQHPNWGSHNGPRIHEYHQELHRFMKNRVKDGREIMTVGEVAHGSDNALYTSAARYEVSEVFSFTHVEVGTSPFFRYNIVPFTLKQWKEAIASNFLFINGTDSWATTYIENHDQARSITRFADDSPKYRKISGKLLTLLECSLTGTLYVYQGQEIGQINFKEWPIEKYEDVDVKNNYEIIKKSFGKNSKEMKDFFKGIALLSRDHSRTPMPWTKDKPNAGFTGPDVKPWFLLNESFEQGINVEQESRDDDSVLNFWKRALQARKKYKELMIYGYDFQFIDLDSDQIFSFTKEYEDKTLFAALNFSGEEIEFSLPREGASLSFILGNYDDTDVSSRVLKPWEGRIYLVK

[1] = biological target: T1, α-amylase (pancreatic form) (Homo sapiens, UniProt P04746); test: α-Amylase inhibition assay; type: biochemical; details: read-out: IC50 against α-amylase
T1 sequence (P04746 16-511): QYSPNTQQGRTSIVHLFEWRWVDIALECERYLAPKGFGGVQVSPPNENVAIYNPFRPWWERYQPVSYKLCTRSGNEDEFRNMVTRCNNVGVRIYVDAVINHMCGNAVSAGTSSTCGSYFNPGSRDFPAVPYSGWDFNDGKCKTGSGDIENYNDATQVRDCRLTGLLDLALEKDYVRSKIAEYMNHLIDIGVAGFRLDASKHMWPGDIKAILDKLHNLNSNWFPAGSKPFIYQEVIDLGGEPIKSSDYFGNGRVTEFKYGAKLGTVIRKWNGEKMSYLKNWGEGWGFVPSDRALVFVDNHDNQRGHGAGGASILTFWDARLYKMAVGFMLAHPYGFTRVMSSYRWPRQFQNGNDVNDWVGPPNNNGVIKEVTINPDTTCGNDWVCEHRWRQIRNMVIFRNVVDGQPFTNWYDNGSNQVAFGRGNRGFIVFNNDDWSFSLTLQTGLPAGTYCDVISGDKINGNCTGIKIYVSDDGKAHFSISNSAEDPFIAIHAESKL
Experimental: Inhibitory activity of the most poten new α-glucosidase inhibitors 5k, 5j, and 5f was evaluated against α-amylase (pancreatic form)[15].
(Supplementary Information S1).

α-glucosidase [2] = biological target: α-glucosidase (Saccharomyces cerevisiae, UniProt P53341); test: Kinetics of α-glucosidase inhibition (Lineweaver–Burk plot and secondary plot); type: biochemical, yeast
Sequence of α-glucosidase (Saccharomyces cerevisiae, UniProt P53341) (P53341 whole entry): as the sequence (P53341 whole entry) above
Source text: As the result, with increasing concentration of compound 5k, Vmax values remained constant while Km values increased.
In vitro assays (inhibition effects and kinetics) of the new compounds 5a–n performed according to pervious reported work[15] (Supplementary Information S1).

α-glucosidase [3] = biological target: α-glucosidase; design: method as in doi:10.1007/s00044-020-02603-7; details: template compounds A, read-out: IC50 for Compounds A (Fig. 3); cited from earlier work
[4] = read-out: IC50 against α-glucosidase

| melting point | IC50 (yeast α-glucosidase; [4]) | SMILES | IC50 (yeast α-glucosidase) | further results |
| --- | --- | --- | --- | --- |
| 205 to 207 °C | 66 ± 1.8 µM | Cc1cccc(NC(=O)Cn2cc(CNC(=O)c3cc4ccccc4[nH]3)nn2)c1C [Compound 5d, N-((1-(2-((2,3-dimethylphenyl)amino)-2-oxoethyl)-1H-1,2,3-triazol-4-yl)methyl)-1H-indole-2-carboxamide] |  |  |
| 208 to 210 °C | 111 ± 1.6 µM | Cc1cccc(C)c1NC(=O)Cn1cc(CNC(=O)c2cc3ccccc3[nH]2)nn1 [Compound 5e, N-((1-(2-((2,6-dimethylphenyl)amino)-2-oxoethyl)-1H-1,2,3-triazol-4-yl)methyl)-1H-indole-2-carboxamide] |  |  |
| 203 to 205 °C | 40.2 ± 1.6 µM | CCc1ccc(NC(=O)Cn2cc(CNC(=O)c3cc4ccccc4[nH]3)nn2)cc1 [Compound 5f, N-((1-(2-((4-ethylphenyl)amino)-2-oxoethyl)-1H-1,2,3-triazol-4-yl)methyl)-1H-indole-2-carboxamide] |  | IC50 [1]: > 150 µM |
| 211 to 213 °C |  | O=C(Cn1cc(CNC(=O)c2cc3ccccc3[nH]2)nn1)Nc1cccc(Cl)c1 [Compound 5h, N-((1-(2-((3-chlorophenyl)amino)-2-oxoethyl)-1H-1,2,3-triazol-4-yl)methyl)-1H-indole-2-carboxamide] |  |  |
| 233 to 235 °C | 39.6 ± 1.4 µM | O=C(Cn1cc(CNC(=O)c2cc3ccccc3[nH]2)nn1)Nc1ccc(Cl)cc1Cl [Compound 5j, N-((1-(2-((2,4-dichlorophenyl)amino)-2-oxoethyl)-1H-1,2,3-triazol-4-yl)methyl)-1H-indole-2-carboxamide] |  | IC50 [1]: > 150 µM |
| 254 to 256 °C | 110.3 ± 0.6 µM | O=C(Cn1cc(CNC(=O)c2cc3ccccc3[nH]2)nn1)Nc1cccc([N+](=O)[O-])c1 [Compound 5l, N-((1-(2-((3-nitrophenyl)amino)-2-oxoethyl)-1H-1,2,3-triazol-4-yl)methyl)-1H-indole-2-carboxamide] |  |  |
| 259 to 261 °C | 78.8 ± 0.3 µM | O=C(Cn1cc(CNC(=O)c2cc3ccccc3[nH]2)nn1)Nc1ccc([N+](=O)[O-])cc1 [Compound 5m, N-((1-(2-((4-nitrophenyl)amino)-2-oxoethyl)-1H-1,2,3-triazol-4-yl)methyl)-1H-indole-2-carboxamide] |  |  |
| 229 to 231 °C | 43.5 ± 0.7 µM | Cc1cc([N+](=O)[O-])ccc1NC(=O)Cn1cc(CNC(=O)c2cc3ccccc3[nH]2)nn1 [Compound 5n, N-((1-(2-((2-methyl-4-nitrophenyl)amino)-2-oxoethyl)-1H-1,2,3-triazol-4-yl)methyl)-1H-indole-2-carboxamide] |  |  |
|  |  | O=C(Cn1cc(CNC(=O)c2c3ccccc3nc3ccccc23)nn1)Nc1ccc(Br)cc1 [Compounds A, R = 4-Br] |  | IC50 (α-glucosidase [3]): 269 ± 2.8 µM |
|  |  | O=C(Cn1cc(CNC(=O)c2c3ccccc3nc3ccccc23)nn1)Nc1ccc(Cl)cc1 [Compounds A, R = 4-Cl] |  | IC50 (α-glucosidase [3]): 309 ± 3.4 µM |
|  |  | Cc1ccc(NC(=O)Cn2cc(CNC(=O)c3c4ccccc4nc4ccccc34)nn2)cc1 [Compounds A, R = 4-Me] |  | IC50 (α-glucosidase [3]): 519 ± 6.7 µM |
|  |  | O=C(Cn1cc(CNC(=O)c2c3ccccc3nc3ccccc23)nn1)Nc1ccc([N+](=O)[O-])cc1 [Compounds A, R = 4-NO2] |  | IC50 (α-glucosidase [3]): 152 ± 1.7 µM |
|  |  | O=C(Cn1cc(CNC(=O)c2c3ccccc3nc3ccccc23)nn1)Nc1ccccc1 [Compounds A, R = H] |  | IC50 (α-glucosidase [3]): 171 ± 2.1 µM |

| SMILES | melting point | IC50 (yeast α-glucosidase; [4]) | IC50 (yeast α-glucosidase) | further results |
| --- | --- | --- | --- | --- |
| O=C(Cn1cc(CNC(=O)c2cc3ccccc3[nH]2)nn1)Nc1ccccc1 [Compound 5a, N-((1-(2-oxo-2-(phenylamino)ethyl)-1H-1,2,3-triazol-4-yl)methyl)-1H-indole-2-carboxamide] | 216 to 218 °C |  | 62.9 ± 0.3 µM |  |
| Cc1cccc(NC(=O)Cn2cc(CNC(=O)c3cc4ccccc4[nH]3)nn2)c1 [Compound 5b, N-((1-(2-oxo-2-(m-tolylamino)ethyl)-1H-1,2,3-triazol-4-yl)methyl)-1H-indole-2-carboxamide] | 224 to 226 °C |  | 63.6 ± 1.1 µM |  |
| Cc1ccc(NC(=O)Cn2cc(CNC(=O)c3cc4ccccc4[nH]3)nn2)cc1 [Compound 5c, N-((1-(2-oxo-2-(p-tolylamino)ethyl)-1H-1,2,3-triazol-4-yl)methyl)-1H-indole-2-carboxamide] | 231 to 233 °C |  | 42.6 ± 0.9 µM |  |
| COc1ccc(NC(=O)Cn2cc(CNC(=O)c3cc4ccccc4[nH]3)nn2)cc1 [Compound 5g, N-((1-(2-((4-methoxyphenyl)amino)-2-oxoethyl)-1H-1,2,3-triazol-4-yl)methyl)-1H-indole-2-carboxamide] | 209 to 211 °C |  | 83 ± 0.7 µM |  |
| O=C(Cn1cc(CNC(=O)c2cc3ccccc3[nH]2)nn1)Nc1ccc(Cl)cc1 [Compound 5i, N-((1-(2-((4-chlorophenyl)amino)-2-oxoethyl)-1H-1,2,3-triazol-4-yl)methyl)-1H-indole-2-carboxamide] | 225 to 227 °C |  | 83 ± 1.6 µM |  |
| O=C(Cn1cc(CNC(=O)c2cc3ccccc3[nH]2)nn1)Nc1ccc(Br)cc1 [Compound 5k, N-((1-(2-((4-bromophenyl)amino)-2-oxoethyl)-1H-1,2,3-triazol-4-yl)methyl)-1H-indole-2-carboxamide] | 236 to 238 °C |  | 26.8 ± 0.5 µM | improvement in the inhibition effect in comparison to standard inhibitor acarbose (yeast α-glucosidase; ratio of α-glucosidase IC50 values, acarbose vs compound): ~28 fold; type of inhibition (α-glucosidase [2]; Lineweaver–Burk plot, Vmax constant, Km increased): competitive type of inhibition; also recorded: competitive inhibitor; Ki (α-glucosidase [2]; secondary plot of Lineweaver–Burk plots): 26 µM; IC50 [1]: > 150 µM |
